Values of other authors, collected in paper PMC11748363, “Antimicrobial and Antiproliferative Properties of 2‐Phenyl‐N‐(Pyridin‐2‐yl)acetamides” (Chemical Biology & Drug Design, 2025).
In brackets after ≈: the same amount, converted by molar mass.

Test system: Mycobacterium tuberculosis H37Ra
Parameters: method as in Nawrot et al. 2021
Settings: previously published N‐pyridinyl benzamides; ref Nawrot et al. 2021; cited from earlier work

Compound | MIC Mtb H37Ra (μg/mL), previously published compounds
COc1cccc(C(=O)Nc2ccccn2)c1 [C00003 R1=H,R2=3-OMe] | 62.5 µg/mL (≈ 274 µM)
O=C(Nc1ccccn1)c1ccc(Cl)cc1 [C00003 R1=H,R2=4-Cl] | 62.5 µg/mL (≈ 269 µM)
COc1ccc(C(=O)Nc2ccccn2)cc1 [C00003 R1=H,R2=4-OMe] | 62.5 µg/mL (≈ 274 µM)
O=C(Nc1ccccn1)c1ccccc1 [C00003 R1=H,R2=H] | 250 µg/mL (≈ 1260 µM)
